The values that follow come from PubChem BioAssay (NCI).

“And” between values parts separate entries of the source, which are not always exact repeats. Identical values can stand only once.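 Interpolation was linear, between the two tested concentrations surrounding the appropriate level; five concentrations were tested over 48 hours in 96-well plates. Here, GI50 denotes the concentration required for 50% inhibition of growth. TGI denotes the concentration required for complete inhibition of growth.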

Common to all, as to assay: NCI-60 cell line screen, 48 h
The subject of assay [1] is A549 NSCLC.
The subject of assay [2] is ACHN renal.
Assay [3] concerns HOP-62 NSCLC.
Assay [4] relates to KM12 colon.
The subject of assay [5] is LOX IMVI melanoma.
Assay [6] relates to NCI-H23 lung.
The subject of assay [7] is RPMI-8226 leukemia.
The test system of assay [8] is SF-295 CNS.
In assay [9] the test system is SK-MEL-2 melanoma.
Assay [10] deals with UACC-257 melanoma.

With `COc1cccc2c1c1nc3cc(C)c(C)cc3nc1n2CCN(C)C`, the GI50 in assay [1] is 1.99 µM; in assay [2], 0.433 µM; in assay [3], 1.72 µM; in assay [4], 1.83 µM; in assay [5], 1.04 µM; in assay [6] it was 1.66 µM. Further, the GI50 was 1.16 µM in [7], 2.17 µM in assay [8], 1.85 µM in [9] and 1.9 µM in [10]. Further, the TGI in assay [1] turned out to be 12 µM; in [2], 10.3 µM; in assay [3], 11 µM; in [4], 9.43 µM; in assay [5] it was 8.7 µM; in assay [6], 5.57 µM. The TGI came to 4.29 µM in [7], 7.62 µM in [8], 4.39 µM in [9] and 4.74 µM in assay [10].

Regarding `C/C(=C\c1c[nH]c2ccccc12)[N+](=O)[O-]`, the GI50 is 5.85 µM in [1]; 4.36 µM in [2]; 4.04 µM in [3]; 3.98 µM in [4]; 1.89 µM in assay [5]; 10.2 µM in assay [6]. In addition, the GI50 in assay [7] is 1.81 µM; in [8], 7.97 µM; in assay [9], 6.24 µM; in assay [10], 4.89 µM. Moreover, the TGI in [1] amounted to 21.4 µM; in [2], 16.6 µM; in assay [3], 13.6 µM; in assay [4], 15.6 µM; in assay [5] it was 4.86 µM; in assay [6] it was 22.6 µM. In addition, the TGI in assay [7] is 4.17 µM; in assay [8] it was 22.7 µM; in assay [9] it was 20.8 µM; in assay [10], 17.1 µM.

Turning to `CCCC(=O)NNc1[nH]c(-c2ccc(OC)cc2)cc1C(=O)OCC`, the GI50 in [1] is 21.5 µM; in assay [2], 10.9 µM; in [3] it was above 100 µM; in assay [4] it was 37.7 µM; in assay [5], 16.8 µM; in assay [6] it was 14.9 µM. Moreover, the GI50 in assay [7] is 16.8 µM; in [8] it was 38 µM; in assay [9], 4.59 µM; in assay [10], 1.6 µM. In addition, the TGI in assay [1] was 44.8 µM; in [2] it was 22.9 µM; in assay [3] it was above 100 µM; in assay [4], above 100 µM; in assay [5], 30.5 µM; in [6], 38 µM. Also, the TGI in assay [7] was 86.2 µM; in [8], above 100 µM; in [9] it was 8.48 µM; in [10], 14.8 µM.

Consider `CN(CCC(=O)O)S(=O)(=O)c1ccccc1`, for which the TGI in [1], in assay [2], in [3], in [4], in assay [5] and in assay [6] was above 100 µM throughout. In addition, the TGI in assay [7], in [8], in [9] and in assay [10] was above 100 µM in each case.

Turning to `Cc1ccc(C2=NO[C@@H]3C(=O)N(c4ccc(Cc5ccc(N6C(=O)[C@H]7C(c8ccc(C)cc8)=NO[C@H]7C6=O)cc5)cc4)C(=O)[C@H]23)cc1`, the TGI in assay [1], in assay [2], in assay [3], in assay [4], in assay [5] and in assay [6] was above 100 µM each time. For the same molecule, the TGI in assay [7], in [8], in [9] and in assay [10] was above 100 µM each time.

For the molecule `Cc1ccc2[nH]c(=O)c(C(C#N)c3ccccc3)nc2c1` (configuration not stated), the TGI in assay [1], in assay [2], in assay [3], in assay [4], in assay [5] and in [6] was above 100 µM throughout. Further, the TGI in [7] was above 100 µM; in assay [8], above 100 µM; in assay [9] it was 65.4 µM; in assay [10], above 100 µM.

With `CCC(=C(c1ccc(OCc2ccccc2)cc1)c1ccc(OCc2ccccc2)cc1)c1ccc(OC)cc1`, the TGI in [1], in assay [2], in assay [3], in [4], in assay [5] and in assay [6] was above 100 µM throughout. Further, the TGI in assay [7], in [8] and in assay [9] was above 100 µM each time.

Take `CCOC(=O)C1=C(C)N(NC(=O)c2ccccc2)C2(O)CCCC12C(=O)OCC` (configuration not stated): the TGI in assay [1], in [2], in [3], in assay [4], in assay [5] and in assay [7] was above 100 µM each time. In addition, the TGI in assay [8], in assay [9] and in [10] was above 100 µM in each case.

On to `CC(C)=CCC/C(C)=C/CC/C(=C/COP(=O)(OCc1ccc([N+](=O)[O-])o1)N(C)CCCCCl)C(C)(C)C` (configuration not stated), for which the GI50 in assay [1] is 10.9 µM; in assay [3], 1.83 µM; in assay [4], 3.63 µM; in assay [5], 1.28 µM; in [6] it was 12.6 µM; in [7], 1.45 µM. Besides, the GI50 was 2.73 µM in [9] and 10.8 µM in [10]. For the same molecule, the TGI in assay [1] is 27.5 µM; in assay [3], 3.86 µM; in assay [4], 14.9 µM; in assay [5], 4.68 µM; in assay [6], 34.2 µM; in [7] it was 12.3 µM. The TGI in assay [9] came out at 11.4 µM; in assay [10] it was 27.6 µM.

As to `Cn1cnc2c(NCc3ccccc3)nc(NCCO)nc21`, the GI50 in assay [1] is 105 µM; in assay [2], 92.7 µM; in assay [4], 62.1 µM; in [5], 48.4 µM; in [6], 110 µM; in assay [7], 81.2 µM. The GI50 in [8] is 122 µM; in assay [9], 44.4 µM; in assay [10] it was 155 µM. The TGI in assay [1] is above 458 µM; in assay [2], above 468 µM; in [3] it was > 86 µM and 183 µM; in [4] it was 344 µM; in assay [5], 81.4 µM and > 395 µM; in assay [6], 382 µM. Besides, the TGI in assay [7] is above 339 µM; in assay [8], above 500 µM; in assay [9] it was 178 µM; in assay [10] it was above 474 µM.

Turning to `Cc1cc(C)n(-c2c(O)ccc(O)c2-n2nc(C)cc2C)n1`, the TGI in assay [1], in assay [2], in assay [3], in [4], in assay [5] and in assay [6] was above 100 µM in each case. The TGI in assay [7], in assay [8] and in assay [9] was above 100 µM each time.

With `NC(=O)Oc1cc(OC(N)=O)cc(N(CCCl)CCCl)c1`, the GI50 was 5.13 µM in assay [1]; 20.9 µM in assay [3]; 14.1 µM in assay [4]; 2.3 µM in assay [5]; 6.12 µM in assay [6]; 3.67 µM in assay [7]. In addition, the GI50 in assay [8] was 2.89 µM; in assay [9] it was 15.6 µM; in assay [10] it was 12.1 µM. In addition, the TGI in assay [1] is 69 µM; in [3], above 100 µM; in assay [4] it was 36.7 µM; in assay [5] it was above 100 µM; in [6], 63 µM; in assay [7], 53.2 µM. Further, the TGI in assay [8] is above 100 µM; in [9], 47.8 µM; in assay [10], 53.6 µM.

As for `Cn1c2cccc3nnc4cccc(c4c32)n1C`, the TGI in assay [1], in assay [2], in assay [4], in assay [5], in [7] and in assay [8] was above 100 µM in each case. Moreover, the TGI in assay [9] and in assay [10] was above 100 µM in each case.

Take `CCN(CC)CCOc1cc2c(C(=O)OC)c(C)oc2cc1C(C)=O`: the GI50 in assay [1] is 18.5 µM; in assay [2], 5.65 µM; in [4], 4.45 µM; in assay [5], 10.2 µM; in assay [6], 11.8 µM; in [7], 2.76 µM. Moreover, the values for the GI50 in assay [8], in assay [9] and in assay [10] were 14.8 µM, 33.3 µM and 13 µM, respectively. Also, the TGI is 38.4 µM in [1]; 18.3 µM in assay [2]; 21.1 µM in [4]; 22 µM in assay [5]; 27.7 µM in assay [6]; 7.39 µM in [7]. Besides, the TGI in assay [8] is 29.1 µM; in assay [9], above 100 µM; in assay [10], 31.7 µM.

In the case of `CC(=O)Nc1ccc(/C=C/C(=O)c2sc(C(N)=S)nc2C)cc1`, the TGI in assay [1], in assay [3], in [4], in assay [5], in [6] and in assay [7] was above 100 µM throughout. In addition, the TGI in assay [8], in assay [9] and in assay [10] was above 100 µM throughout.

With `Clc1ccc(CO/N=C(\Cn2ccnc2)c2ccc(Cl)cc2Cl)c(Cl)c1`, the GI50 was 1.55 µM in assay [1]; 1.76 µM in assay [2]; 1.56 µM in assay [3]; 1.45 µM in assay [5]; 1.45 µM in [7]; 2.06 µM in assay [9]. Further, the GI50 in assay [10] is 1.68 µM. In addition, the TGI in assay [1] is 3.32 µM; in [2], 3.17 µM; in [3], 2.9 µM; in [5] it was 3.21 µM; in assay [7], 4.52 µM; in [9] it was 3.92 µM. The TGI in assay [10] was found to be 3.18 µM.

Consider `[N-]=[N+]=CC(=O)OCC(N)C(=O)O` (configuration not stated), for which the GI50 in [1] is 0.711 µM; in [2], 1.7 µM; in assay [3], 2.26 µM; in [4], 0.58 µM; in [5], 0.485 µM; in assay [6] it was 1.85 µM. Moreover, the GI50 in assay [7] is 1.8 µM; in [9], 15.9 µM; in assay [10], 3.61 µM. The TGI in assay [1] is 2.86 µM; in assay [2] it was above 100 µM; in assay [3], above 100 µM; in assay [4], above 100 µM; in [5], above 100 µM; in [6] it was above 100 µM. In addition, the TGI in [7], in assay [9] and in [10] was above 100 µM each time.

As to `CCNc1nc(N2CC(=O)Nc3cc(OC)ccc32)c2ccccc2n1`, the GI50 in [1] is 0.000737 µM; in assay [2] it was 0.00139 µM; in [3] it was 0.00227 µM; in assay [4], 0.000404 µM; in [5] it was 0.000693 µM; in [6], 0.000554 µM. Besides, the figures for the GI50 in assay [7] and in assay [8] were 0.000471 µM and 0.00129 µM, respectively. For the same molecule, the TGI was above 100 µM in assay [1]; above 100 µM in assay [2]; 14.2 µM in assay [3]; above 100 µM in assay [4]; above 100 µM in assay [5]; above 100 µM in assay [6]. Besides, the TGI in [7] came out at 24.3 µM; in assay [8], 0.00614 µM; in [9], 42.7 µM.

With `O=C1c2ccccc2C(=O)c2nc(-c3ccccc3)c(-c3ccccc3)nc21`, the TGI is above 84.2 µM in assay [1]; above 100 µM in assay [2]; above 100 µM in [3]; above 100 µM in assay [4]; above 56.1 µM in [5]; above 100 µM in assay [6]. Further, the TGI in assay [7], in assay [8] and in assay [9] was above 100 µM throughout.

On to `COC(=O)[C@@H](C)C[C@H](Cc1ccccc1)NC(=O)c1csc([C@@H](C[C@H](C(C)C)N(C)C(=O)[C@@H](NC(=O)[C@H]2CCCCN2C)C(C)C)OC(C)=O)n1`, for which the GI50 in assay [1] is 0.000457 µM and 0.0025 µM; in assay [2], 0.000417 µM and 0.0025 µM; in assay [3], 0.000396 µM and 0.0025 µM; in assay [5], 0.000695 µM and 0.0025 µM; in assay [6] it was 0.000395 µM and 0.0025 µM; in assay [9], 0.000256 µM. The TGI in assay [1], in assay [2], in [3], in assay [4], in [5] and in [6] was above 25 µM in each case. Moreover, the TGI came to 7.54 µM in assay [7] and 13.1 µM in assay [8].
